Results published in PubChem BioAssay (NCI).
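Results reflect a 48-hour exposure of cells in 96-well plates to compound at five concentrations. Definition used: TGI = concentration required for complete inhibition of growth.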

Tests used:
Assay in all cases: DTP human tumour cell line panel, 48 h
PC-3 prostate = system: PC-3 prostate
RPMI-8226 leukemia = system: RPMI-8226 leukemia
SK-OV-3 ovarian = system: SK-OV-3 ovarian
LOX IMVI melanoma = system: LOX IMVI melanoma
UO-31 renal = system: UO-31 renal
NCI-H23 lung = system: NCI-H23 lung
ACHN renal = system: ACHN renal
HL-60(TB) leukemia = system: HL-60(TB) leukemia
SK-MEL-28 melanoma = system: SK-MEL-28 melanoma
M14 melanoma = system: M14 melanoma
OVCAR-8 ovarian = system: OVCAR-8 ovarian
CAKI-1 renal = system: CAKI-1 renal
NCI/ADR-RES ovarian = system: NCI/ADR-RES ovarian
U251 CNS = system: U251 CNS
786-0 renal = system: 786-0 renal
CCRF-CEM leukemia = system: CCRF-CEM leukemia
OVCAR-3 ovarian = system: OVCAR-3 ovarian
NCI-H226 lung = system: NCI-H226 lung
KM12 colon = system: KM12 colon
HS 578T breast = system: HS 578T breast

SMILES	TGI (PC-3 prostate) [µM]	TGI (RPMI-8226 leukemia) [µM]	TGI (SK-OV-3 ovarian) [µM]	TGI (LOX IMVI melanoma) [µM]	TGI (UO-31 renal) [µM]	TGI (NCI-H23 lung) [µM]	TGI (ACHN renal) [µM]	TGI (HL-60(TB) leukemia) [µM]	TGI (SK-MEL-28 melanoma) [µM]	TGI (M14 melanoma) [µM]	TGI (OVCAR-8 ovarian) [µM]	TGI (CAKI-1 renal) [µM]	TGI (NCI/ADR-RES ovarian) [µM]	TGI (U251 CNS) [µM]	TGI (786-0 renal) [µM]	TGI (CCRF-CEM leukemia) [µM]	TGI (OVCAR-3 ovarian) [µM]	TGI (NCI-H226 lung) [µM]	TGI (KM12 colon) [µM]	TGI (HS 578T breast) [µM]
COC(=O)/C=C(/C=C1/C(C#N)=C(N)N(c2ccc(Cl)cc2)C1(C)/C(=C/C(=O)OC)C(=O)OC)C(=O)OC (centres undefined)	> 100	> 100	> 100	84.6	> 100	> 100	> 100	41.8	> 100	> 100	> 100	> 100	> 100	> 100	> 100	> 100	> 100			
O=C1NC(=O)C(CCC(=O)c2ccc3ccccc3c2)C(=O)N1			> 100	> 100	> 100	> 100	> 100	> 100	> 100	> 100	> 100	> 100		> 100	> 100	> 100	> 100	> 100	> 100	
Cc1cccc(C(C)C)c1NC(=O)/C(Cc1c([N+](=O)[O-])cccc1[N+](=O)[O-])=N/NC(=O)CC#N			> 100	> 100	> 100		> 100	> 100	> 100	> 100		> 100			> 100	> 100	> 100	> 100	> 100	
O=C1c2ccccc2C(=O)c2c1cc(S(=O)(=O)O)c(O)c2O		> 100	> 100	> 100	> 100	> 100	> 100		> 100	> 100	> 100	> 100		> 100	> 100	> 100	> 100	> 100	> 100	
COc1ccc2c(c1)C(=O)Cc1ccccc1CC2		> 100	> 100	> 100	> 100	> 100	> 100	> 100	> 100	> 100	> 100	> 100		> 100	> 100	> 100	> 100	> 100	> 100	
CC(=N)OC1CC2CCC1(C)C2(C)C (centres undefined)	> 100	> 100	> 100	> 100	> 100	> 100	> 100	> 100	> 100	> 100	> 100	> 100		> 100	> 100	> 100	> 100	> 100	> 100	> 100
c1ccc2c(c1)CC1=C(O2)c2ccccc2OC1	> 100	67.3	> 100	40.2	> 100	> 100	> 100			> 100	> 100	49.5	> 100	59.2	32.6	> 100	48.7	> 100	> 100	
CCC(C)(C)C1CCC2c3c([nH]c4ccccc34)C3C(=O)N(c4ccc(OC)cc4)C(=O)C3C2C1 (centres undefined)	26.6		77.6	23.7	> 100	35.1	58.6		> 100	> 100	30.4	22.7	44.4	54.8	25.9		7.28	37.3	12.2	
O=C(O)CCCn1nnc2c(=O)[nH][nH]c(=O)c21	> 100	> 100		> 100	> 100	> 100	> 100	> 100	> 100	> 100	> 100	> 100	> 100	> 100	> 100	> 100	> 100		> 100	
C=C1[C@H](OC(C)=O)[C@H]2[C@@H](OC(C)=O)[C@@H](C)C[C@]2(C)C(=O)[C@H](C)/C=C/C(C)(C)C(=O)[C@H](OCC(C)C)[C@H]1OC(C)=O	> 25		> 25	> 25	> 25	> 25	> 25	> 25		> 25	> 25	> 25	> 25	> 25	> 25	> 25	> 25	> 25	> 25	> 25
O=S(=O)(O)C1=C2Sc3ccccc3N=C2c2ccccc2C1		38.6	44.1	25.5	33.6	31.1	25.1	21.2	31.4	25.5	31.5	34.7		25.4	31.4	24.3	31.3	35.5	29.5	
O=C1N[C@H]2c3c(Cl)sc(Cl)c3[C@@H](O)[C@H]2O1	> 100	> 100	> 100		> 100		> 100	> 100	> 100	> 100	> 100	> 100	> 100	> 100	> 100	> 100	> 100		> 100	
N#CC1C(=O)N(c2ccccc2)NC12OC(=O)c1ccncc12 (centres undefined)	> 20	> 20	> 20	> 20	> 20	> 20	> 20	> 20	> 20	> 20	> 20	> 20	> 20	> 20	> 20	> 20	> 20	> 20		
Nc1nc(Cl)c(CO)c(NCC2(CO)CC(CCc3ccccc3)C2)n1 (centres undefined)	> 100	35.2		50.4	68.8	37.5	> 100	28.9	47		35.6	> 100	73.8	> 100	> 100	69.5	63.1	36.3	14.2	
